From ChEMBL document CHEMBL1201862, “PubChem BioAssay data set” (2004)
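Protocol summary: plate cells (96-well), add compound at 5 concentrations, incubate 48 h, interpolate endpoints linearly. At the GI50, growth is halved.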 Activity calls are given as the source filed them. Rule as the data show it: active = GI50 up to about 1.1 µM and inactive = higher.

Legend:
Assay in all cases: NCI tumour cell line growth inhibition, 48 h
DLD-1 = tested on: DLD-1
DMS-114 = tested on: DMS-114
DMS-273 = tested on: DMS-273
HOP-18 = tested on: HOP-18
KM-20L2 = tested on: KM-20L2
M19-MEL = tested on: M19-MEL
RXF 631 = tested on: RXF 631
SNB-78 = tested on: SNB-78
XF498 = tested on: XF498

Measured: GI50

CCCCCCCC(=O)OC(CBr)COC(=O)C(C)(C)C (stereo not drawn)
inactive: DLD-1 > 100 µM | DMS-114 > 77.1 µM | DMS-273 > 84.5 µM | HOP-18 > 100 µM | KM-20L2 > 100 µM | M19-MEL > 84.1 µM | RXF 631 > 100 µM | SNB-78 > 100 µM | XF498 > 100 µM

COc1ccc(/C=C2\CCC(CN(C)C)C2=O)cc1OC (stereo not drawn)
inactive: DLD-1 2.69 µM | DMS-114 12.5 µM | DMS-273 14.4 µM | HOP-18 20.8 µM | KM-20L2 12.8 µM | M19-MEL 7 µM | RXF 631 6.84 µM | SNB-78 17.5 µM | XF498 13.5 µM
